Results: EP0475231A1, “Benzodiazepines” (priority 1990, dated 1992)
Like-named read-outs stand apart in the source and are kept apart here.

Tests used:
HIV-1 RT = molecular target: T1, HIV-1 RT (Human immunodeficiency virus type 1 group M subtype B, UniProt P03366); experiment: HIV-1 RT inhibition with recombinant DNA-derived enzyme, poly(rA)·oligo(dT)10 template/primer, 3H-TTP incorporation; format: biochemical
T1 construct: made in house
Method: Compounds of the present invention were also examined for their ability to inhibit HIV-1 RT using recombinant DNA-derived enzyme (S.F.J. Le Grice and F. Gruninger-Leitch, European Journal of Biochemistry 187:307-314 (1990)) in […] volume assay mixtures. Mixtures contained 50mM Tris-HCl (pH 8.0), 25mM KCl, 4mM MgCl₂, 5mM dithiothreitol (DTT), 0.05% Triton X-100, […] ³H-TTP (2Ci/mmol), 1mg poly(rA)·oligo(dT)₁₀ (20:1) as template/primer, test compound at the desired concentration, and an appropriate quantity of HIV RT, usually 0.01 to 0.1mg. The assay mixtures were incubated at 37°C for 10 minutes and the reactions were stopped by the addition of 10% trichloroacetic acid (TCA). Yeast RNA ([…] per reaction) was added and the reaction products were precipitated at 4°C for 30 minutes. TCA-precipitated material was collected by filtration and the bound radioactivity determined by counting using a liquid scintillation counter. The concentration of compound required to inhibit the activity of HIV-RT by fifty percent (IC₅₀) was determined from a multiple dose-effect analysis program (J. Chou and I. C. Chou, Dose Effect Analysis with Microcomputers, Elsevier Sciences Publishers, Amsterdam 1987).

HIV-TAT = experiment: anti-HIV-TAT assay: SeAP reporter under HIV-LTR versus RSV-LTR in transfected COS cells; format: cell-based; conditions: 1-50 µM, specific inhibition of SeAP under HIV-LTR minus RSV-LTR, 48 hours after addition, average of at least three tests, grades not defined
Method: The compounds of formula I were also tested for anti-HIV-TAT activity in an assay comprising the following steps: • (a) putting both the expression of the Secreted Alkaline Phosphatase (SeAP) gene and the viral transactivator TAT gene under the control of the HIV promoter LTR responsive to the action of the HIV transactivator TAT; • (b) transfecting cultured mammalian cells with plasmids which contain the gene constructs of (a) above and cause cellular production of the transactivating factor TAT and SeAP; • (c) adding the agent to be tested, here the compounds of formula I; and determining the amount of SeAP produced, by measuring SeAP enzymatic activity, whereby inhibition of SeAP production correlates with the anti-TAT inhibition activity.
In this assay, the inhibition of SeAP positively correlates with anti-TAT activity. The greater the ability of an agent to inhibit SeAP, the greater is its anti-TAT activity.
Specifically, with respect to the results reported below, the anti-HIV-TAT assay was run as follows:
At 24 hours post transfection 1, 10, 25 and 50 µM of a test compound of formula I was added to the culture media of COS cells transfected with two plasmids, one containing the reporter gene which codes for SeAP under control of HIV-LTR, and the other containing the HIV-TAT gene also under control of HIV-LTR. The alkaline phosphatase activity of the media was assayed 48 hours after addition of test compound with a colorimetric assay using p-nitrophenylphosphate as the substrate.
The anti-HIV-TAT activities of the test compounds were determined by measuring the amount of alkaline phosphatase in the supernatant media of cultures of cells in which SeAP gene expression was under the control of the HIV LTR promoter. The specific inhibitory activities of the test compounds were calculated according to the formula: 100[(1-A/B)-(1-C/D)] [formula] where A and B are the alkaline phosphatase activites produced by HIV-LTR/SeAP in the presence and absence, respectively, of test compound, and C and D are the alkaline phosphatase activities produced by RSV-LTR/SeAP in the presence and absence, respectively, of test compound. The concentrations tested ranged from 1-50 µM. The results provided are the average of at least three tests. The test compound was added 24 hours after cells were transfected with the plasmids when SeAP specific mRNA and protein were already present and the protein was very stable. […]

HIV-1 NIT strain = experiment: anti-HIV activity test: reduction of immuno-fluorescent positive (viral antigen) cells in infected CD4+ CEM cells; format: cell-based; conditions: Human immunodeficiency virus 1, CCRF-CEM, 96 h, concentration which reduces the number of immuno-fluorescent positive cells by 50%, MOI 1, four days after infection, read-out: IC₅₀
Method: The compounds I were tested for the inhibition of HIV-cytopathic effect and the reduction of cell-associated viral antigens in an experiment run as follows:
High titer virus stocks (HIV-1 NIT strain) were grown in CD₄+ CR10 cells in RMPI-1640 media (Gibco Laboratories) supplemented with 10% fetal calf serum and 0.1 mg/ml Gentamicin. The collected media were filtered and the virus isolates were concentrated 100 fold and stored at -80°C. CD₄+ CEM cells, propagated in the same medium, were incubated for 60 minutes at 37°C with diluted stock virus at multiplicity of infection (MOI) equal to 1. Cells were washed with phosphate buffered saline and resuspended in the medium at 2 x 10⁵ cells/ml. Various quantities of the test compounds in DMSO were added. Four days after infection, the number of live cells were counted by trypan blue exclusion (Proc. Natl. Acad. Sci. 83, 1986, 1911). At the same time, aliquots of cells were fixed with acetone and stained with antibodies from AIDS patients, followed by a second staining with fluorescein-conjugated goat anti-human IgG (Cappel). Cells stained with the fluorescent antibody were counted using a fluorescence microscope and the results were expressed as percentage of the total number of cells counted (J. Med. Virol. 19, 1986, 325).
The results of this anti-HIV activity test, expressed in IC₅₀ (µM), i.e. the concentration of the test compound which reduces the number of immuno-fluorescent positive cells by 50%, are given in Table I below.

[1] = recombinant HIV-1 RT, 37°C, 10 minutes, read-out: IC₅₀

| Compound | IC50 (HIV-1 RT) [µM] | Anti-HIV-TAT activity (HIV-TAT) | IC50 (HIV-1 NIT strain) [µM] | IC50 (HIV-1 RT; [1]) [µM] |
| --- | --- | --- | --- | --- |
| C#CCNC1=Nc2ccc(Cl)cc2C(c2ccc[nH]2)=NC1 [NHCH₂C≡CH, 7-chloro-N-(2-propynyl)-5-(1H-pyrrol-2-yl)-3H-1,4-benzodiazepin-2-amine] | 2 |  |  |  |
| CCN(CC)C1=Nc2ccc(Cl)cc2C(c2ccc[nH]2)=NC1 [N(CH₂CH₃)₂, 7-chloro-N,N-diethyl-5-(1H-pyrrol-2-yl)-3H-1,4-benzodiazepin-2-amine] |  | Low/Medium |  |  |
| Clc1ccc2c(c1)C(c1ccc[nH]1)=NCC(NCc1ccccc1)=N2 [NHCH₂Ph, 7-chloro-N-(phenylmethyl)-5-(1H-pyrrol-2-yl)-3H-1,4-benzodiazepin-2-amine] | 2.6 | Low/Medium | 3 |  |
| Clc1ccc2c(c1)C(c1ccc[nH]1)=NCC(N1CCNCC1)=N2 [1-piperazinyl, 7-chloro-2-(1-piperazinyl)-5-(1H-pyrrol-2-yl)-3H-1,4-benzodiazepine] |  | Low |  | 18 |
| Clc1ccc2c(c1)C(c1ccc[nH]1)=NCC(NC1CC1)=N2 [NH(cyclopropyl), 7-chloro-N-cyclopropyl-5-(1H-pyrrol-2-yl)-3H-1,4-benzodiazepin-2-amine] | 5.4 | Medium | 0.8 |  |
| CSC1=Nc2ccc(Cl)cc2C(c2ccc[nH]2)=NC1 [SCH₃, 7-chloro-2-(methylthio)-5-(1H-pyrrol-2-yl)-3H-1,4-benzodiazepine] | 1.6 | Low/Medium | 5 to 10 |  |
| COC(CNC1=Nc2ccc(Cl)cc2C(c2ccc[nH]2)=NC1)OC [NHCH₂CH(OCH₃)₂, 7-chloro-N-(2,2-dimethoxyethyl)-5-(1H-pyrrol-2-yl)-3H-1,4-benzodiazepin-2-amine] |  | Medium/High | 1 to 5 |  |
| OCCNC1=Nc2ccc(Cl)cc2C(c2ccc[nH]2)=NC1 [NHCH₂CH₂OH, 7-chloro-N-(2-hydroxyethyl)-5-(1H-pyrrol-2-yl)-3H-1,4-benzodiazepin-2-amine] | 8.9 | Medium | 2 to 5 |  |
| Clc1ccc2c(c1)C(c1ccc[nH]1)=NCC(Nc1ccccc1)=N2 [NHPh, 7-chloro-N-phenyl-5-(1H-pyrrol-2-yl)-3H-1,4-benzodiazepin-2-amine] | 15.8 |  |  |  |
| NCCNC1=Nc2ccc(Cl)cc2C(c2ccc[nH]2)=NC1 [NHCH₂CH₂NH₂, N-[7-chloro-5-(1H-pyrrol-2-yl)-3H-1,4-benzodiazepin-2-yl]-1,2-ethanediamine] |  | Medium |  |  |
| C=CCNC1=Nc2ccc(Cl)cc2C(c2ccc[nH]2)=NC1 [NHCH₂CH=CH₂, 7-chloro-N-(2-propenyl)-5-(1H-pyrrol-2-yl)-3H-1,4-benzodiazepin-2-amine] | 4.2 | Low |  |  |
| COC1=Nc2ccc(Cl)cc2C(c2ccc[nH]2)=NC1 [OCH₃, 7-chloro-2-methoxy-5-(1H-pyrrol-2-yl)-3H-1,4-benzodiazepine] | 1.5 | Medium | 1 |  |
| Clc1ccc2c(c1)C(c1ccc[nH]1)=NCC(N1CCCC1)=N2 [1-pyrrolidinyl, 7-chloro-5-(1H-pyrrol-2-yl)-2-(1-pyrrolidinyl)-3H-1,4-benzodiazepine] |  | Medium/High | 0.8 to 5 | 10.2 |
| Clc1ccc2c(c1)C(c1ccc[nH]1)=NCC(N1CCCCC1)=N2 [1-piperidinyl, 7-chloro-2-(1-piperidinyl)-5-(1H-pyrrol-2-yl)-3H-1,4-benzodiazepine] |  | Medium/High | 2 | 10.4 |
| CN(C)C1=Nc2ccc(Cl)cc2C(c2ccc[nH]2)=NC1 [N(CH₃)₂, 7-chloro-N,N-dimethyl-5-(1H-pyrrol-2-yl)-3H-1,4-benzodiazepin-2-amine] | 7.3 | Medium/High | 1 to 3 |  |
| NNC1=Nc2ccc(Cl)cc2C(c2ccc[nH]2)=NC1 [NHNH₂, 7-chloro-2-hydrazino-5-(1H-pyrrol-2-yl)-3H-1,4-benzodiazepine] |  | High | 1 |  |
| OC1CCN(C2=Nc3ccc(Cl)cc3C(c3ccc[nH]3)=NC2)C1 (racemic) [3-OH-1-pyrrolidinyl, rac-1-[7-chloro-5-(1H-pyrrol-2-yl)-3H-1,4-benzodiazepin-2-yl]-3-pyrrolidinol] |  | High | 1 to 5 | 6.4 |
